# Tests used:
# wild-type potato plants = assay: Effect of ethionine in the maintenance medium on growth of wild-type potato plants; type: in vivo, Russet Burbank potato
# Experimental: (§1) Inaba, et al. used 100 μM ethionine, the toxic analogue of methionine to select Arabidopsis thaliana mutants that overaccumulated methionine. We tested the effects of ethionine on the growth of transgenic potato plants by incorporating ethionine into the maintenance medium. Several concentrations of ethionine, 10, 25, 50, 100, 200, 300 μM were tested initially using wild-type potato plants.
# [1] = tested on: transgenic potato plants (CGS+); assay: Resistance to ethionine in CGS+ transgenic potato plants (growth on maintenance medium with ethionine); type: in vivo, Russet Burbank potato
# Experimental: as §1
# [2] = ethionine 10 μM in maintenance medium
smiles,measurement,setting,value
CCSCC[C@H](N)C(=O)O [ethionine],growth of wild-type potato plants,wild-type potato plants; [2],growth of wild-type plants were inhibited
same,growth of wild-type potato plants,"wild-type potato plants; ethionine 50 μM and higher (10, 25, 50, 100, 200, 300 μM tested) in maintenance medium",total inhibition of growth
same,growth of transgenic potato plants,[1]; [2],continued to grow
same,root initiation of transgenic potato plants,[1]; [2],all transgenic plants initiated roots in three days
same,growth of transgenic potato plants,[1]; ethionine 25 and 50 μM in maintenance medium,only CGS4 and CGS8 had limited growth of roots

# Source: patent US20050039231A1, “Method for selecting transformed plant cells using ethionine and cystathionine gamma synthase as the selection agent and marker gene” (Rutgers, The State University, priority 1999, published 2005)
